# In PubChem BioAssay (NCI):
#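 Step 1: Grow cells in 96-well plates. Step 2: Expose to compound for 48 hours at 5 concentrations. Step 3: Interpolate endpoints linearly; if unreached, use highest concentration. TGI denotes the concentration required for complete inhibition of growth.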
# Key:
# Experiment in all cases: growth of human tumour cells (NCI), 48 h
# [1] = tested on: SF-539 CNS
# [2] = tested on: TK-10 renal
# [3] = tested on: MDA-MB-435
# [4] = tested on: SNB-19 CNS
# [5] = tested on: HOP-92 NSCLC
# [6] = tested on: NCI-H460 lung
# [7] = tested on: SN12C renal
# [8] = tested on: HOP-62 NSCLC
# [9] = tested on: OVCAR-4 ovarian
# [10] = tested on: MCF7 breast
# [11] = tested on: PC-3 prostate
# [12] = tested on: SR leukemia
# [13] = tested on: CAKI-1 renal
# [14] = tested on: HS 578T breast
# [15] = tested on: U251 CNS
# [16] = tested on: K-562 leukemia
# [17] = tested on: RXF 393 renal
# [18] = tested on: NCI-H522 lung
# [19] = tested on: EKVX NSCLC
# [20] = tested on: SK-MEL-28 melanoma
# [21] = tested on: M14 melanoma
# [22] = tested on: A549 NSCLC
# [23] = tested on: LOX IMVI melanoma
# [24] = tested on: HCT-116 colon
# [25] = tested on: HCT-15 colon
# [26] = tested on: T-47D breast
# [27] = tested on: DU-145 prostate
# [28] = tested on: 786-0 renal
# [29] = tested on: OVCAR-3 ovarian
# [30] = tested on: OVCAR-8 ovarian
# [31] = tested on: BT-549 breast
# [32] = tested on: MALME-3M melanoma
# [33] = tested on: COLO 205 colon
# [34] = tested on: KM12 colon
# [35] = tested on: MDA-MB-231 breast
# [36] = tested on: SK-OV-3 ovarian
# [37] = tested on: UACC-62 melanoma
# [38] = tested on: A498 renal
# [39] = tested on: OVCAR-5 ovarian
# [40] = tested on: SF-268 CNS
# [41] = tested on: NCI-H226 lung
# [42] = tested on: SF-295 CNS
# [43] = tested on: CCRF-CEM leukemia
# [44] = tested on: ACHN renal
# [45] = tested on: MOLT-4 leukemia
# [46] = tested on: HT29 colon
# [47] = tested on: SW-620 colon
# [48] = tested on: SK-MEL-2 melanoma
# [49] = tested on: SK-MEL-5 melanoma
# [50] = tested on: IGROV1 ovarian
# [51] = tested on: UACC-257 melanoma
# [52] = tested on: HL-60(TB) leukemia
# [53] = tested on: MDA-N
# [54] = tested on: NCI/ADR-RES ovarian
# [55] = tested on: HCC-2998 colon
# [56] = tested on: SNB-75 CNS
# [57] = tested on: NCI-H23 lung
# [58] = tested on: UO-31 renal
# [59] = tested on: RPMI-8226 leukemia
smiles,measurement,setting,value
Cc1ccc(NCc2nnc3c(-c4ccccc4)nc4ccccc4n23)cc1,TGI,[1],> 100 µM
same,TGI,[2],> 100 µM
same,TGI,[3],> 100 µM
same,TGI,[4],> 100 µM
same,TGI,[5],50 µM
same,TGI,[6],> 100 µM
same,TGI,[7],> 100 µM
same,TGI,[8],> 100 µM
same,TGI,[9],> 100 µM
same,TGI,[10],> 100 µM
same,TGI,[11],52.9 µM
same,TGI,[12],> 100 µM
same,TGI,[13],> 100 µM
same,TGI,[14],> 100 µM
same,TGI,[15],> 100 µM
same,TGI,[16],> 100 µM
same,TGI,[17],> 100 µM
same,TGI,[18],> 100 µM
same,TGI,[19],84.1 µM
same,TGI,[20],> 100 µM
same,TGI,[21],> 100 µM
same,TGI,[22],> 100 µM
same,TGI,[23],71.1 µM
same,TGI,[24],> 100 µM
same,TGI,[25],> 100 µM
same,TGI,[26],9.62 µM
same,TGI,[27],> 100 µM
same,TGI,[28],> 100 µM
same,TGI,[29],> 100 µM
same,TGI,[30],> 100 µM
same,TGI,[31],> 100 µM
same,TGI,[32],> 100 µM
same,TGI,[33],86.6 µM
same,TGI,[34],> 100 µM
same,TGI,[35],> 100 µM
same,TGI,[36],> 100 µM
same,TGI,[37],> 100 µM
same,TGI,[38],> 100 µM
same,TGI,[39],> 100 µM
same,TGI,[40],> 100 µM
same,TGI,[41],> 100 µM
same,TGI,[42],> 100 µM
same,TGI,[43],> 100 µM
same,TGI,[44],> 100 µM
same,TGI,[45],> 100 µM
same,TGI,[46],> 100 µM
same,TGI,[47],> 100 µM
same,TGI,[48],65.5 µM
same,TGI,[49],30.4 µM
same,TGI,[50],> 100 µM
same,TGI,[51],> 100 µM
same,TGI,[52],68.3 µM
same,TGI,[53],> 100 µM
same,TGI,[54],> 100 µM
same,TGI,[55],> 100 µM
N#Cc1c(Nc2ccccc2)[n+]([O-])c2ccc(Cl)cc2[n+]1[O-],TGI,[1],21.4 µM
same,TGI,[2],49.2 µM
same,TGI,[3],> 100 µM
same,TGI,[4],> 77.4 µM
same,TGI,[5],4.22 µM
same,TGI,[56],> 96.6 µM
same,TGI,[7],> 100 µM
same,TGI,[8],> 69.9 µM
same,TGI,[9],4.17 µM
same,TGI,[10],> 35.2 µM
same,TGI,[11],> 100 µM
same,TGI,[12],> 27.7 µM
same,TGI,[13],> 100 µM
same,TGI,[14],> 72.8 µM
same,TGI,[15],15.6 µM
same,TGI,[16],> 22.6 µM
same,TGI,[17],> 100 µM
same,TGI,[18],6.49 µM
same,TGI,[19],> 32.9 µM
same,TGI,[20],> 100 µM
same,TGI,[21],34.1 µM
same,TGI,[22],> 60.8 µM
same,TGI,[23],12.7 µM
same,TGI,[24],33.1 µM
same,TGI,[25],6.53 µM
same,TGI,[26],> 100 µM
same,TGI,[27],> 96.4 µM
same,TGI,[28],34 µM
same,TGI,[29],9.76 µM
same,TGI,[30],10.7 µM
same,TGI,[31],14.9 µM
same,TGI,[32],26.9 µM
same,TGI,[33],8.03 µM
same,TGI,[34],> 100 µM
same,TGI,[35],> 67 µM
same,TGI,[36],> 100 µM
same,TGI,[37],31.5 µM
same,TGI,[38],> 61.3 µM
same,TGI,[39],> 100 µM
same,TGI,[57],17.4 µM
same,TGI,[40],> 48.6 µM
same,TGI,[41],> 45.2 µM
same,TGI,[42],> 74.3 µM
same,TGI,[43],> 27.2 µM
same,TGI,[44],68.5 µM
same,TGI,[45],> 100 µM
same,TGI,[46],8.22 µM
same,TGI,[47],> 100 µM
same,TGI,[48],> 72 µM
same,TGI,[49],4.84 µM
same,TGI,[50],5.96 µM
same,TGI,[51],> 25.3 µM
same,TGI,[52],12.1 µM
same,TGI,[58],> 29.4 µM
same,TGI,[53],> 100 µM
same,TGI,[54],8.15 µM
same,TGI,[59],> 24.7 µM
same,TGI,[55],15.2 µM
